Experiments:
[1] = system: Lewis lung murine tumor cells; details: Lewis lung murine tumor cells in culture; Goz et al.; cited from earlier work
[2] = system: human lung carcinoma (A549) cells; experiment: Growth and colony formation of A549 cells in culture; format: cell-based
Source text: Qualitatively similar results were obtained against human lung carcinoma (A549) cells in culture (data not shown). […] The plateau, however, was not observed in association with the analog after the 1-hour (FIG. 3A) or continuous (FIG. 3C) exposure times. A similar plateau was never observed with Cbz-ala-1-borophenylalanine treatment. A plateau was also seen with A549 cells. A growth inhibition assay (Table 1) yielded qualitatively similar results as the colony formation assay.

[3] = system: Human melanoma cells (A375); experiment: Colony Formation Assay (CFA); format: cell-based
Experimental: Human melanoma cells (A375) were seeded at 500 cells per tissue culture dish and allowed to recover for 48 hours. The drug and media mixture was prepared as described above. Following drug exposure, fresh media were substituted for the drug and media mixture. After 7 days, colonies were stained with 0.25% Coomassie Blue and enumerated. Data are expressed as the percent of colonies present in treated plates with respect to control plates (percent survival).

A375 cells = experiment: Macromolecular synthesis: protein synthesis ([3H]-leucine incorporation); format: cell-based, human; details: 0.075 ug/ml
Experimental: Protein synthesis was determined by the incorporation of [^3 H]-leucine into protein in viable cells.
Human melanoma (A375) cells were seeded at 1 ×10^5 cells per tissue culture dish 48 hours prior to the addition of the drug (for example, Cbz-ala-1borovaline or Cbz-ala-1-borophenylalanine). The drug and media mixture was prepared as described above. During the last 30 minutes of drug exposure radioactive labeled precursors were added to the media and drug mixture. Specifically, either ^3 H-thymidine (0.2 uCi/ml, to measure DNA synthesis), ^3 H-uridine (0.2 uCi/ml, to measure RNA synthesis, or ^3 H-leucine (1 uCi/ml, to measure protein synthesis) were added. Following 30 minutes at 37° C., the cells were harvested, resuspended in physiological buffered saline (PBS) and the cells counted. An aliquot of the cell suspension was then lysed (10 mM Tris, 1 mM EDTA, 0.1% SDS) and macromolecules were precipitated with ice-cold trichloroacetic acid (TCA) (20%). Following three washes with TCA, radioactivity in the resulting pellet was counted on a Beckman LS2000 Scintillation Counter. Data is expressed as the percentage of counts incorporated into 1×10^6 treated cells as compared to 1×10^6 untreated cells (percent incorporation).

[4] = system: Human melanoma cells (A375); experiment: Growth Inhibition Assay; format: cell-based; details: for Growth Inhibition (%) 24 hr: counted after 24 hr growth; for Growth Inhibition (%) 48 hr: counted after 48 hr growth; for Growth Inhibition (%) 96 hr: counted after 96 hr growth; for % Inhib (growth): 96 h exposure, fresh inhibitor every 24 h; for growth inhibitory activity (in words): other serine protease inhibitors, Table 2
Experimental: Human melanoma cells (A375) were seeded at 2 ×10^4 cells per tissue culture dish (60×15 mm, Falcon) in Delbecco's Minimal Essential Media (DMEM) containing 10% fetal calf serum and including 1% antibiotics. Cells were allowed to attach for 48 hours prior to exposure to drugs. Cbz-ala-1-borovaline and Cbz-ala-1-borophenylalanine were dissolved in dimethyl sulfoxide (DMSO). The final DMSO concentration in media was 0.5%. Fresh media was exchanged for the media including the drug at appropriate exposure times. Cells were counted after 24, 48 or 96 hours of growth using a Coulter counter. Growth inhibition is expressed as the percent reduction of drug treated cells with respect to untreated control cells.

[5] = system: L1210 murine leukemia cells; experiment: Growth inhibition of L1210 cells in culture; format: cell-based; details: 72-hour exposure, 0.03 uM
Experimental: Following a 72-hour exposure to 0.03 uM ala-1-borovaline, approximately 50% growth inhibition was observed. The two compounds are also cytotoxic to human tumor cell lines. While not yet fully understood, the mechanism of cytotoxicity is not via macromolecular synthesis inhibition in the human tumor cell lines.

CC(NC(=O)OCc1ccccc1)C(=O)NC(Cc1ccccc1)B(O)O (centres unmarked) [Cbz-ala-1-Borophenylalanine, Cbz-ala-1-borophenylalanine]
cytotoxicity (in words) [1]: modest activity
inhibition of growth and colony formation (in words) [2]: effective inhibitors
Colony Formation Inhibition (%) ([3]; exposure 1 h, 51.6 uM): 55%
Colony Formation Inhibition (%) ([3]; exposure 24 h, .026 uM): 10%
Colony Formation Inhibition (%) ([3]; exposure 24 h, .129 uM): 35%
Colony Formation Inhibition (%) ([3]; exposure 24 h, .645 uM): 97%
inhibition of protein synthesis (A375 cells): did not show an acute inhibition of protein synthesis
growth inhibition ([4]; 0.075 ug/ml, 24-hour exposure): 70%
Growth Inhibition (%) 24 hr ([4]; exposure 1 h, 51.6 uM): 20%
Growth Inhibition (%) 48 hr ([4]; exposure 1 h, 51.6 uM): 41%
Growth Inhibition (%) 96 hr ([4]; exposure 1 h, 51.6 uM): 52%
Growth Inhibition (%) 24 hr ([4]; exposure 1 h, 129 uM): 42%
Growth Inhibition (%) 48 hr ([4]; exposure 1 h, 129 uM): 65%
Growth Inhibition (%) 96 hr ([4]; exposure 1 h, 129 uM): 69%
Growth Inhibition (%) 24 hr ([4]; exposure 24 h, .026 uM): 5%
Growth Inhibition (%) 48 hr ([4]; exposure 24 h, .026 uM): 3%
Growth Inhibition (%) 96 hr ([4]; exposure 24 h, .026 uM): 15%
Growth Inhibition (%) 24 hr ([4]; exposure 24 h, .129 uM): 41%
Growth Inhibition (%) 48 hr ([4]; exposure 24 h, .129 uM): 63%
Growth Inhibition (%) 96 hr ([4]; exposure 24 h, .129 uM): 68%
Growth Inhibition (%) 24 hr ([4]; exposure 24 h, .645 uM): 75%
Growth Inhibition (%) 48 hr ([4]; exposure 24 h, .645 uM): 72%
Growth Inhibition (%) 96 hr ([4]; exposure 24 h, .645 uM): 98%
Growth Inhibition (%) 24 hr ([4]; exposure 96 h, .1239 uM): 38%
Growth Inhibition (%) 48 hr ([4]; exposure 96 h, .1239 uM): 68%
Growth Inhibition (%) 96 hr ([4]; exposure 96 h, .1239 uM): 75%
Growth Inhibition (%) 24 hr ([4]; exposure 96 h, .258 uM): 58%
Growth Inhibition (%) 48 hr ([4]; exposure 96 h, .258 uM): 91%
Growth Inhibition (%) 96 hr ([4]; exposure 96 h, .258 uM): 95%

CC(NC(=O)OCc1ccccc1)C(=O)NC(B(O)O)C(C)C (centres unmarked) [Cbz-ala-1-Borovaline, Cbz-ala-1-borovaline]
growth inhibition [5]: approximately 50%
inhibition of growth and colony formation (in words) [2]: effective inhibitors
inhibition of colony formation, comparison of potency (in words) ([3]; FIG. 3): more potent inhibitor of colony formation than was Cbz-ala-1-borophenylalanine
Colony Formation Inhibition (%) ([3]; exposure 1 h, 7.36 uM): 41%
Colony Formation Inhibition (%) ([3]; exposure 1 h, 29.43 uM): 87%
Colony Formation Inhibition (%) ([3]; exposure 24 h, 1.47 uM): 87%
Colony Formation Inhibition (%) ([3]; exposure 24 h, .003 uM): 5%
Colony Formation Inhibition (%) ([3]; exposure 24 h, .029 uM): 43%
Growth Inhibition (%) 24 hr ([4]; exposure 1 h, 7.36 uM): 14%
Growth Inhibition (%) 48 hr ([4]; exposure 1 h, 7.36 uM): 33%
Growth Inhibition (%) 96 hr ([4]; exposure 1 h, 7.36 uM): 46%
Growth Inhibition (%) 24 hr ([4]; exposure 1 h, 29.43 uM): 23%
Growth Inhibition (%) 48 hr ([4]; exposure 1 h, 29.43 uM): 48%
Growth Inhibition (%) 96 hr ([4]; exposure 1 h, 29.43 uM): 73%
Growth Inhibition (%) 24 hr ([4]; exposure 24 h, 1.47 uM): 61%
Growth Inhibition (%) 48 hr ([4]; exposure 24 h, 1.47 uM): 88%
Growth Inhibition (%) 96 hr ([4]; exposure 24 h, 1.47 uM): 93%
Growth Inhibition (%) 24 hr ([4]; exposure 24 h, .003 uM): 5%
Growth Inhibition (%) 48 hr ([4]; exposure 24 h, .003 uM): 5%
Growth Inhibition (%) 96 hr ([4]; exposure 24 h, .003 uM): 14%
Growth Inhibition (%) 24 hr ([4]; exposure 24 h, .029 uM): 17%
Growth Inhibition (%) 48 hr ([4]; exposure 24 h, .029 uM): 50%
Growth Inhibition (%) 96 hr ([4]; exposure 24 h, .029 uM): 68%
Growth Inhibition (%) 24 hr ([4]; exposure 96 h, .029 uM): 21%
Growth Inhibition (%) 48 hr ([4]; exposure 96 h, .029 uM): 51%
Growth Inhibition (%) 96 hr ([4]; exposure 96 h, .029 uM): 68%
Growth Inhibition (%) 24 hr ([4]; exposure 96 h, .736 uM): 53%
Growth Inhibition (%) 48 hr ([4]; exposure 96 h, .736 uM): 78%
Growth Inhibition (%) 96 hr ([4]; exposure 96 h, .736 uM): 89%

Aprotinin [reference compound]
% Inhib (growth) ([4]; 1.54 uM): 0%
% Inhib (growth) ([4]; 15.4 uM): 0%
% Inhib (growth) ([4]; .015 uM): 0%
% Inhib (growth) ([4]; .154 uM): 0%
growth inhibitory activity (in words) [4]: Negligible growth inhibition

N-tosylphenylalanine chloromethyl ketone [TPCK, reference compound]
% Inhib (growth) ([4]; 2.84 uM): 42%
% Inhib (growth) ([4]; 28.4 uM): 100%
% Inhib (growth) ([4]; 142 uM): 100%
% Inhib (growth) ([4]; 284 uM): 100%
% Inhib (growth) ([4]; .028 uM): 5%
% Inhib (growth) ([4]; .284 uM): 9%
growth inhibitory activity (in words) [4]: inhibited growth at very high concentrations

B1: Ovomucoid: serine protease inhibitor (protein, UniProt P01005 25-210, looked up)
Ovomucoid: AEVDCSRFPNATDKEGKDVLVCNKDLRPICGTDGVTYTNDCLLCAYSIEFGTNISKEHDGECKETVPMNCSSYANTTSEDGKVMVLCNRAFNPVCGTDGVTYDNECLLCAHKVEQGASVDKRHDGGCRKELAAVSVDCSEYPKPDCTAEDRPLCGSDNKTYGNKCNFCNAVVESNGTLTLSHFGKC
% Inhib (growth) ([4]; 3.57 uM): 0%
% Inhib (growth) ([4]; 17.9 uM): 0%
% Inhib (growth) ([4]; 89.3 uM): 5%
% Inhib (growth) ([4]; .004 uM): 0%
% Inhib (growth) ([4]; .036 uM): 0%
% Inhib (growth) ([4]; .357 uM): 1%
growth inhibitory activity (in words) [4]: Negligible growth inhibition

Source: US4963655A, “Boron analogs of amino acid/peptide protease inhibitors” (Mayo Foundation for Medical Education and Research, priority 1988, dated 1990)
